Values of other authors in patent US20100035939A1, “PENETRATING CARRIER, ANTI-FUNGAL COMPOSITION USING THE SAME AND METHOD FOR TREATMENT OF DERMATOPHYTES” (priority 2004, published 2010).

Test system: fungal toenail

For CN(C/C=C/C#CC(C)(C)C)Cc1cccc2ccccc12 [terbinafine], the “patients with a serious reaction to the drug” value (in vivo, po) is listed as “One in 500” and the “reoccurrence of the fungal toenail” value (oral administration, in the first year) is listed as 15%.
